From patent US8802104B2, “Parathyroid hormone receptor activation and stem and progenitor cell expansion” (The General Hospital Corporation, priority 2002, dated 2014)

Columns and labels:
[1] = system: C-1498/GFP cells; test: Recombinant OPN on C-1498/GFP leukemia cell growth in vitro; type: cell-based, mouse
Method: (§1) To investigate the role of OPN as a candidate molecule, it was explored whether recombinant OPN is sufficient to reproduce the growth inhibition of leukemia cells in vitro. To this end, C-1498/GFP cells were cultured in wells with either (a) no OPN, (b) with 5 and 10 ug/ml of OPN. […] It was therefore concluded that recombinant osteopontin is sufficient to limit leukemic cell expansion. […] Given that PTH increases osteoblast production of OPN, it is likely that OPN participates in the preferential support of normal over leukemic cells in vivo with PTH stimulation of the stem cell niche.

[2] = system: C-1498/GFP cells; test: Annexin staining of leukemia cells cultured with OPN; type: cell-based, mouse; details: FIG. 13a
Method: as §1

[3] = molecular target: T1, renal PTH receptors (Homo sapiens, UniProt Q03431); details: cited from earlier work
T1 sequence (Q03431 27-593): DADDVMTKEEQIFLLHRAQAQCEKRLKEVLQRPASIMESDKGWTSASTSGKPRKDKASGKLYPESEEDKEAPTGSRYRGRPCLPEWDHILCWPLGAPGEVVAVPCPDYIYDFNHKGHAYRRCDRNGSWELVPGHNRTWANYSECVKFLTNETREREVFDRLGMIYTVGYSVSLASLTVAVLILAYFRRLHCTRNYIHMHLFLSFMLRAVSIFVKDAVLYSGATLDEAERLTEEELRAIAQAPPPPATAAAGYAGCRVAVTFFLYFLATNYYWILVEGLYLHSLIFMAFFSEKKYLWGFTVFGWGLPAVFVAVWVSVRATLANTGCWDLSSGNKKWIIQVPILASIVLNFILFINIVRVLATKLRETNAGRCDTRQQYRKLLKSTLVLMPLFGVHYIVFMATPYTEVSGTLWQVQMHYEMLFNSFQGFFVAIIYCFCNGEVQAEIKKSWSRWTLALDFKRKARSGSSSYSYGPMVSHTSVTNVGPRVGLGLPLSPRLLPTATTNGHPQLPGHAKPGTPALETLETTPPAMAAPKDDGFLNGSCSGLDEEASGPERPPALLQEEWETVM

[4] = system: PTH-stimulated adenylate cyclase; details: cited from earlier work
[5] = system: peripheral blood cells; test: Complete blood count during cyclophosphamide chemotherapy cycles; type: in vivo, C57Bl/6 mice; details: cyclophosphamide 5 mg per cycle, G-CSF 5 μg/day 8 days
Method: (§2) Wild-type C57Bl/6 mice were treated with 5 mg of cyclophosphamide (Day 1). The day following injection of cyclophosphamide, mice received no treatment or were treated for 8 days with G-CSF (5 μg/day), 11 days with PTH (80 μg/kg/day) or a combination of G-CSF plus PTH. Mice that received a combination of both G-CSF and PTH received G-CSF treatment for 8 days and PTH treatment for 11 days. Following this treatment protocol, mice were injected with cyclophosphamide on Day 15 and treated with G-CSF, PTH or G-CSF and PTH as described above. The treatment protocol was then repeated for two subsequent cycles, as outlined in FIG. 7.
During the course of the four treatment cycles, peripheral blood complete blood count (CBC) analysis was performed every 2 to 3 days. This analysis involved the collection of 100 μl of peripheral blood from the tail vein of the mice, which was subsequently analyzed on a HEMAVET 850FS (Drew Scientific). To avoid any deleterious effects from repeated tail bleeds, each individual mouse was only bled once per week.

[6] = system: HSC pool in the bone marrow; test: HSC pool in bone marrow following chemotherapy (competitive transplant); type: in vivo, C57Bl/6 mice; details: G-CSF alone
Method: as §2
(§3) At the end of the four-cycle treatment with cyclophosphamide and G-CSF/PTH, the bone marrow was removed from the treated mice and competitive transplants into B6.SJL mice were performed to measure the maintenance of the HSC pool in the bone marrow. This involved mixing 5×10^5 BM cells from the treated C57Bl/6 mice (CD45.2) with 2.5×10^5 BM cells from the B6.SJL mice (CD45.1). These cells were then injected into lethally irradiated B6.SJL mice. Eighteen weeks following injection of the cells, peripheral blood was collected from the mice and the relative contribution of the HSCs from the treated animals was measured by flow cytometry for the CD45.2^+ cells. To assess the ability of the HSCs to be mobilized into the peripheral circulation, one week following treatment mice were mobilized with G-CSF (5 μg/day) for 5 days. Peripheral blood (300 μl) was collected from these mice and mixed with 2.5×10^5 BM cells from a B6.SJL mouse. These cells were injected into a lethally irradiated B6.SJL host. Eighteen weeks following injection of the cells, peripheral blood was collected from the mice and the relative contribution of the HSCs from the treated animals was measured by flow cytometry for the CD45.2^+ cells.

[7] = system: HSCs in the peripheral circulation; test: G-CSF mobilization of HSCs into peripheral circulation after chemotherapy; type: in vivo, C57Bl/6 mice; details: supportive growth factor therapy alone during chemotherapy
Method: as §2, §3

Osteopontin [OPN]
inhibition of leukemia cell growth ([1]; 5 and 10 ug/ml OPN, FIG. 13b): sufficient to reproduce the inhibition of leukemia cell growth
relative ability to limit primitive cell expansion ([1]; leukemic vs normal cells): greater in leukemic compared to normal cells
Annexin staining (mode of effect) [2]: growth inhibition rather than accelerated apoptosis

PTH(25-34) (RKKLQDVHNF; Parathyroid hormone; UniProt P01270 56-65, looked up, fragment)
receptor binding / affinity [3]: weak receptor binding activity

[Tyr^34]bPTH(7-34)NH2
agonist activity [4]: does not have any agonist activity
receptor binding / affinity [3]: moderate affinity

PTH(1-25) (SVSEIQLMHNLGKHLNSMERVEWLR; Parathyroid hormone; UniProt P01270 32-56, looked up, fragment) [carboxyl-terminally truncated PTH fragment]
agonist activity [4]: inactive

PTH(1-34)
agonist activity [4]: full agonist

B1: granulocyte colony-stimulating factor (protein, UniProt P09919 31-207, looked up)
Granulocyte …: TPLGPASSLPQSFLLKCLEQVRKIQGDGAALQEKLVSECATYKLCHPEELVLLGHSLGIPWAPLSSCPSQALQLAGCLSQLHSGLFLYQGLLQALEGISPELGPTLDTLQLDVADFATTIWQQMEELGMAPALQPTQGAMPAFASAFQRRAGGVLVASHLQSFLEVSYRVLRHLAQP
notes: growth factor administered to augment recovery from chemotherapy-induced neutropenia
neutrophils count (NE) following chemotherapy [5]: significant increases
white blood count (WBC) following chemotherapy [5]: significant increases
HSC pool in the bone marrow following chemotherapy [6]: significant depletion of the HSC pool
mobilization of HSCs into the peripheral circulation [7]: little to no mobilization
